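Briefly, cells in 96-well plates were exposed to five compound concentrations for 48 h, and endpoints were estimated by linear interpolation. At the GI50, growth is halved.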 Active and inactive are the calls of the source. Rule as the data show it: active = GI50 up to about 1.1 µM and inactive = higher.
Legend:
Assay in all cases: NCI tumour cell line growth inhibition, 48 h
[1] = tested on: HOP-92
[2] = tested on: PC-3
[3] = tested on: RPMI-8226
[4] = tested on: SR
[5] = tested on: OVCAR-5
[6] = tested on: CAKI-1
[7] = tested on: KM12
[8] = tested on: SK-MEL-5
[9] = tested on: OVCAR-4
[10] = tested on: A549
[11] = tested on: SK-OV-3
[12] = tested on: SF-295
[13] = tested on: TK-10
[14] = tested on: MDA-MB-435
[15] = tested on: OVCAR-3
[16] = tested on: IGROV-1
[17] = tested on: Hs-578T
[18] = tested on: SNB-19
[19] = tested on: CCRF-CEM
[20] = tested on: SF-539

Measured: GI50

Nc1nc(SCC(=O)c2ccc(Br)cc2)c2nc[nH]c2n1
inactive: [1] 17.3 µM | [2] 34.2 µM | [3] 17.1 µM | [4] 17.9 µM | [5] 47.1 µM | [6] 26.2 µM | [7] 44.8 µM | [8] 20 µM | [9] 53.3 µM | [10] 55 µM | [11] 34.5 µM | [12] 34.8 µM | [13] 20.8 µM | [14] 35.2 µM | [15] 32.3 µM | [16] 13.6 µM | [17] 21.6 µM | [18] > 100 µM | [19] 6.28 µM

CCOC(=O)/C(C(=S)NCc1ccccc1)=C(/N)N1CCCC1
inactive: [1] > 100 µM | [2] > 100 µM | [3] > 100 µM | [4] > 100 µM | [5] > 100 µM | [6] > 100 µM | [7] > 100 µM | [8] > 100 µM | [9] > 100 µM | [10] > 100 µM | [12] > 100 µM | [13] > 100 µM | [20] > 100 µM | [14] > 100 µM | [15] > 100 µM | [16] > 100 µM | [17] > 100 µM | [18] > 100 µM | [19] > 100 µM

Cc1ccnc2c1c(=O)c1ccccc1n2C
inactive: [1] 49.7 µM | [2] 31.8 µM | [3] 36.7 µM | [4] 44.9 µM | [5] 54.5 µM | [6] 22.1 µM | [7] 50.7 µM | [8] 18.7 µM | [9] 35.6 µM | [11] 35.2 µM | [12] 37.5 µM | [13] 26.3 µM | [20] 29.9 µM | [14] 42.9 µM | [15] 63.2 µM | [16] 31 µM | [17] 25.3 µM | [18] 15.4 µM | [19] 47.2 µM

O=c1[nH]c(=O)n(C/C=C/CO)nc1Br
inactive: [1] > 100 µM | [2] > 100 µM | [3] > 100 µM | [4] > 100 µM | [5] > 100 µM | [6] > 100 µM | [7] > 100 µM | [8] > 100 µM | [9] > 100 µM | [10] > 100 µM | [12] > 100 µM | [13] > 100 µM | [20] > 100 µM | [14] > 100 µM | [15] > 100 µM | [16] > 100 µM | [17] > 100 µM | [18] > 100 µM | [19] > 100 µM

O=C(/C=C/c1csc(-c2ccccc2)n1)NCc1ccc(C(=O)NCCc2ccccc2)cc1
inactive: [1] 6.85 µM | [2] 49.4 µM | [3] > 100 µM | [4] > 100 µM | [5] 73.3 µM | [6] 15.6 µM | [7] 61.1 µM | [8] 69.5 µM | [9] 24.5 µM | [10] 26.7 µM | [11] 12.3 µM | [12] 9.73 µM | [13] 11.7 µM | [14] > 100 µM | [15] 63.8 µM | [16] 36.6 µM | [17] 7.05 µM | [18] 11.4 µM | [19] > 100 µM

CN1CCN(Cn2nc(COc3ccccc3Cl)n(/N=C/c3ccc(-c4ccc(Cl)cc4Cl)o3)c2=S)CC1
inactive: [1] 14.3 µM | [2] 23.8 µM | [3] 29.2 µM | [4] 24.3 µM | [5] 35.6 µM | [6] 22.7 µM | [7] 19.7 µM | [8] 24.8 µM | [9] 20 µM | [11] 35.5 µM | [12] 27.4 µM | [13] 23.9 µM | [20] 27 µM | [14] 24.8 µM | [15] 21.7 µM | [16] 28 µM | [17] 84.1 µM | [19] 25.6 µM

COc1ccc2c(c1O)[C@@]13CCCC=C1[C@@H](C2)N(C)CC3
inactive: [1] 39.7 µM | [2] 59.6 µM | [3] 29.3 µM | [4] 25.6 µM | [5] > 100 µM | [6] > 100 µM | [7] > 100 µM | [8] 69.2 µM | [9] > 100 µM | [10] > 100 µM | [11] > 100 µM | [12] > 100 µM | [13] > 100 µM | [14] 36.6 µM | [15] 50.7 µM | [16] > 100 µM | [17] 42.5 µM | [18] > 100 µM | [19] 27.5 µM

C/C=C(/C)C(=O)O[C@H]1C[C@@H]2[C@@H](O)c3occ(C)c3C[C@]2(C)[C@@H](C)C1
inactive: [1] 17.4 µM | [2] 14.4 µM | [3] 25.6 µM | [4] 14.2 µM | [5] 19.6 µM | [6] 18.3 µM | [7] 16.3 µM | [8] 10.4 µM | [9] 18 µM | [11] 17.1 µM | [12] 15.2 µM | [13] 17.6 µM | [20] 17.5 µM | [14] 16.5 µM | [15] 17.1 µM | [16] 16.7 µM | [17] 28.8 µM | [18] 16.8 µM | [19] 18.4 µM

O=C(O)c1ccccc1/C=C1/Cc2ccc3c(c2C1=O)CCC3
inactive: [1] 24.9 µM | [2] 42.9 µM | [3] 22.4 µM | [4] 39.1 µM | [5] 20.9 µM | [6] > 100 µM | [7] 37.8 µM | [8] 18.2 µM | [9] 29.8 µM | [10] 44.7 µM | [12] 42.4 µM | [13] 90.8 µM | [20] 23.9 µM | [14] 26.3 µM | [15] 31.8 µM | [16] 43.6 µM | [17] 32.2 µM | [18] 54.7 µM | [19] 38.9 µM

O=C(NCCCCCCO)c1cccc2cc3ccccc3nc12
inactive: [1] 25.8 µM | [2] 17 µM | [3] 16.7 µM | [4] > 10 µM | [5] 18.6 µM | [6] 17.4 µM | [7] 18.7 µM | [8] 18.1 µM | [9] 18.9 µM | [10] 15.5 µM | [11] 22.4 µM | [12] 16.7 µM | [13] 16.6 µM | [20] 16.7 µM | [14] 21.7 µM | [15] 19.9 µM | [16] 17.7 µM | [17] 25.8 µM | [18] 15.8 µM | [19] 32.3 µM

N#Cc1c(-c2ccc(Cl)cc2)c2c(n(C3OC(CO)C(O)C(O)C3O)c1=S)CCCC2 (stereo not drawn)
inactive: [1] 46 µM | [2] 56.2 µM | [3] 44.3 µM | [4] 39.2 µM | [5] > 100 µM | [6] > 100 µM | [7] 50 µM | [8] 18.4 µM | [9] 82.2 µM | [10] > 100 µM | [12] > 100 µM | [13] 72.4 µM | [20] > 100 µM | [14] 54.8 µM | [15] 69.8 µM | [16] 59.2 µM | [17] > 100 µM | [18] 39.1 µM | [19] 49.3 µM

Cn1/c(=N\c2ccccc2[N+](=O)[O-])sc2ccccc21
inactive: [1] 14.7 µM | [2] 66.1 µM | [3] > 100 µM | [4] > 100 µM | [5] 22 µM | [6] 43.9 µM | [7] 1.6 µM | [8] 19.2 µM | [9] 16.1 µM | [10] > 100 µM | [11] 23 µM | [12] 42.6 µM | [13] 8.93 µM | [20] 28.2 µM | [14] > 100 µM | [16] 5.4 µM | [17] 16.5 µM | [18] 36.1 µM | [19] > 100 µM

N#C/C(=C\c1ccc2[nH]ccc2c1)C(=O)NCCCCNC(=O)/C(C#N)=C/c1ccc2[nH]ccc2c1
inactive: [1] > 31.6 µM | [2] > 10 µM | [3] > 10 µM | [4] > 31.6 µM | [5] > 31.6 µM | [6] > 31.6 µM | [7] > 31.6 µM | [8] > 31.6 µM | [9] > 31.6 µM | [10] > 100 µM | [11] > 31.6 µM | [12] > 31.6 µM | [13] > 31.6 µM | [20] > 31.6 µM | [14] > 10 µM | [15] > 31.6 µM | [16] > 31.6 µM | [17] > 10 µM | [18] > 31.6 µM | [19] > 31.6 µM

O=C1CC(CC(O)C(O)C(O)CO)CC(=O)N1 (stereo not drawn)
inactive: [1] > 100 µM | [2] > 100 µM | [3] > 100 µM | [4] > 100 µM | [5] > 100 µM | [6] > 100 µM | [7] > 100 µM | [8] > 100 µM | [9] > 100 µM | [10] > 100 µM | [12] > 100 µM | [20] > 100 µM | [14] > 100 µM | [15] > 100 µM | [16] > 100 µM | [17] > 100 µM | [19] > 100 µM

CCOC1=C(c2ccccc2)N2CCCCC2O1 (stereo not drawn)
inactive: [1] 2.21 µM | [2] 2.61 µM | [3] 1.5 µM | [4] 3.71 µM | [5] 3.94 µM | [6] 26.5 µM | [7] 3.27 µM | [8] 1.7 µM | [10] 5.57 µM | [12] 3.26 µM | [13] 5.32 µM | [20] 9.29 µM | [14] 3.25 µM | [15] 3.79 µM | [16] 5.78 µM | [17] 6.12 µM | [18] 3.76 µM | [19] 2.94 µM

Source: ChEMBL document CHEMBL1201862, “PubChem BioAssay data set” (2004)
